Drawing on patent US20260224589A1 (priority 2023, published 2026), this text covers IC50 for 29 compounds.

The experiment deals with AsPC-1 cells. Kind of experiment: phospho-ERK HTRF assay in AsPC-1 cells, 4 h treatment. Format: cell-based. (TR-FRET usually uses a lanthanide donor and a delayed reading to cut background.)
Where [1] appears, read: Homo sapiens, ASPC1, AsPC-1, 4H, Table 1a class column, read-out: pERK IC50 activity range (*).
Setting [2] is: Homo sapiens, ASPC1, AsPC-1, 4H, Table 1a, read-out: PERK IC50 (AsPC-1, 4H).
[3] abbreviates: Homo sapiens, ASPC1, AsPC-1, 4h, Table 1b, read-out: PERK IC50 (AsPC-1, 4h).

As usually defined, the IC50 is the point on the concentration scale where inhibition reaches its midpoint.

Read-outs that look alike come from different tables or passages of the source.

As for `CN(C)C(=O)c1nc2c(s1)CCCN(c1nc(OC[C@@]34CCCN3C[C@H](F)C4)nc3c1CO[C@H](c1c(C(F)(F)F)ccc(N)c1F)C3)C2` [compound 202], the IC50 under setting [1] is greater than 0.5 µM and the IC50 under setting [2] is greater than 10 µM.

In the case of `CN(C)C(=O)c1nn2c(c1Cl)CN(c1nc(OC[C@@]34CCCN3C[C@H](F)C4)nc3c1COC(c1nc(N)ccc1C(F)(F)F)C3)CCC2` (stereo partly drawn) [compound 217, 5-(7-(6-amino-3-(trifluoromethyl)pyridin-2-yl)-2-(((2R,7aS)-2-fluorotetrahydro-1H-pyrrolizin-7a(5H)-yl)methoxy)-7,8-dihydro-5H-pyrano[4,3-d]pyrimidin-4-yl)-3-chloro-N,N-dimethyl-5,6,7,8-tetrahydro-4H-pyrazolo[1,5-a][1,4]diazepine-2-carboxamide], the IC50 was 0.101 to 0.5 µM under setting [1] and 0.312 µM under setting [2]. The matching figures for `CN(C)C(=O)c1nc2c(o1)CCCN(c1nc(OC[C@@]34CCCN3C[C@H](F)C4)nc3c1COC(c1c(C(F)(F)F)ccc(N)c1F)C3)C2` (stereo partly shown) [compound 208]: greater than 0.5 µM and 1.44 µM. Turning to `CN(C)C(=O)c1nn2c(c1Cl)CN(c1nc(OC[C@@]34CCCN3C[C@H](F)C4)nc3c1CO[C@H](c1cc(N)cc(F)c1C(F)(F)F)C3)CCC2` [compound 402], the IC50 under setting [1] was 0.01 to 0.03 µM. Turning to `CN(C)C(=O)c1nn2c(c1Cl)CN(c1nc(OC[C@@]34CCCN3C[C@H](F)C4)nc3c1CO[C@H](c1c(F)c(N)cc(F)c1C(F)(F)F)C3)CCC2` [214a, 5-((S)-7-(3-amino-2,5-difluoro-6-(trifluoromethyl)phenyl)-2-(((2R,7aS)-2-fluorotetrahydro-1H-pyrrolizin-7a(5H)-yl)methoxy)-7,8-dihydro-5H-pyrano[4,3-d]pyrimidin-4-yl)-3-chloro-N,N-dimethyl-5,6,7,8-tetrahydro-4H-pyrazolo[1,5-a][1,4]diazepine-2-carboxamide], the 50% inhibitory concentration (IC50) under setting [3] is less than 0.01 µM.

For the compound `CN(C)C(=O)c1nn2c(c1Cl)CN(c1nc(OC[C@@]34CCCN3C[C@H](F)C4)nc3c1CO[C@H](c1c(F)c(N)cc(Cl)c1C(F)(F)F)C3)CCC2` [213a, 5-((S)-7-(3-amino-5-chloro-2-fluoro-6-(trifluoromethyl)phenyl)-2-(((2R,7aS)-2-fluorotetrahydro-1H-pyrrolizin-7a(5H)-yl)methoxy)-7,8-dihydro-5H-pyrano[4,3-d]pyrimidin-4-yl)-3-chloro-N,N-dimethyl-5,6,7,8-tetrahydro-4H-pyrazolo[1,5-a][1,4]diazepine-2-carboxamide], the IC50 under setting [3] was less than 0.01 µM. For the compound `CS(=O)(=O)c1nn2c(c1Cl)CN(c1nc(OC[C@@]34CCCN3C[C@H](F)C4)nc3c1CO[C@H](c1c(C(F)(F)F)ccc(N)c1F)C3)CCC2` [211a, 3-((S)-4-(3-Chloro-2-(methylsulfonyl)-7,8-dihydro-4H-pyrazolo[1,5-a][1,4]diazepin-5(6H)-yl)-2-(((2R,7aS)-2-fluorotetrahydro-1H-pyrrolizin-7a(5H)-yl)methoxy)-7,8-dihydro-5H-pyrano[4,3-d]pyrimidin-7-yl)-2-fluoro-4-(trifluoromethyl)aniline], the IC50 reads like this: under setting [1], 0.101 to 0.5 µM; under setting [2], 0.126 µM.

`CN(C)C(=O)c1nn2c(c1Cl)CN(c1nc(OC[C@@]34CCCN3CC(=C(F)F)C4)nc3c1CO[C@H](c1c(F)c(N)cc(Cl)c1C(F)(F)F)C3)CCC2` [248a, 5-((S)-7-(3-amino-5-chloro-2-fluoro-6-(trifluoromethyl)phenyl)-2-(((S)-2-(difluoromethylene)tetrahydro-1H-pyrrolizin-7a(5H)-yl)methoxy)-7,8-dihydro-5H-pyrano[4,3-d]pyrimidin-4-yl)-3-chloro-N,N-dimethyl-5,6,7,8-tetrahydro-4H-pyrazolo[1,5-a][1,4]diazepine-2-carboxamide]: the IC50 under setting [3] is less than 0.01 µM.

As for `CC#Cc1cc(N)cc([C@@H]2Cc3nc(OC[C@@]45CCCN4C/C(=C\F)C5)nc(N4CCCn5nc(C(=O)N6CCCC6)cc5C4)c3CO2)c1C(F)(F)F` [compound 420], the IC50 under setting [3] was less than 0.01 µM. `CN(C)C(=O)c1nn2c(c1Cl)CN(c1nc(OC[C@@]34CCCN3CC(=C(F)F)C4)nc3c1COC(c1cc(N)cc(F)c1C(F)(F)F)C3)CCC2` (stereo partly shown) [compound 238]: the IC50 was 0.01 to 0.03 µM under setting [1] and 0.0293 µM under setting [2].

With `Cc1c(C(=O)N(C)C)nn2c1CN(c1nc(OC[C@@]34CCCN3C/C(=C\F)C4)nc3c1CO[C@H](c1c(F)c(N)cc(Cl)c1C(F)(F)F)C3)CCC2` [compound 440], the IC50 under setting [3] was less than 0.01 µM. As for `Nc1ccc(C(F)(F)F)c(C2Cc3nc(OC[C@@]45CCCN4C[C@H](F)C5)nc(N4CCCn5nc(C(=O)N6CCOCC6)c(Cl)c5C4)c3CO2)c1F` (stereo partly shown) [compound 227], the half-maximal inhibitory concentration (IC50) is, setting by setting: under setting [1], 0.031 to 0.1 µM; under setting [2], 0.097 µM. The corresponding values for `Nc1ccc(C(F)(F)F)c(C2Cc3nc(OC[C@@]45CCCN4C[C@H](F)C5)nc(N4CCNC5CS(=O)(=O)C[C@H]54)c3CO2)c1F` (stereo partly shown) [compound 207] are greater than 0.5 µM and greater than 10 µM. For the compound `CN(C)C(=O)n1cc2c(n1)CCCN(c1nc(OC[C@@]34CCCN3C[C@H](F)C4)nc3c1COC(c1c(C(F)(F)F)ccc(N)c1F)C3)C2` (stereo partly shown) [compound 228], the IC50 under setting [1] is greater than 0.5 µM and the IC50 under setting [2] came out at 3.07 µM.

For `Nc1ccc(C(F)(F)F)c(C2Cc3nc(OC[C@@]45CCCN4C[C@H](F)C5)nc(N4CCNCC(=O)C4)c3CO2)c1F` (stereo partly shown) [compound 210], the IC50 by setting is: (AsPC-1, 4H, Table 1a class column, read-out: pERK IC50 activity range (*)) greater than 0.5 µM; (AsPC-1, 4H, Table 1a, read-out: PERK IC50 (AsPC-1, 4H)) greater than 10 µM. For `CON(C)C(=O)c1nn2c(c1Cl)CN(c1nc(OC[C@@]34CCCN3CC(=C(F)F)C4)nc3c1COC(c1c(F)c(N)cc(Cl)c1C(F)(F)F)C3)CCC2` (stereo partly shown) [compound 454], the half-maximal inhibitory concentration (IC50) under setting [1] is 0.01 to 0.03 µM. Regarding `Cc1cc(N)cc([C@@H]2Cc3nc(OC[C@@]45CCCN4CC(=C(F)F)C5)nc(N4CCCn5nc(C(=O)N(C)C)c(C)c5C4)c3CO2)c1C(F)(F)F` [compound 416], under setting [3], the IC50 was less than 0.01 µM. Turning to `Nc1ccc(C(F)(F)F)c([C@@H]2Cc3nc(OC[C@@]45CCCN4C[C@H](F)C5)nc(N4CCCS(=O)(=O)CC4)c3CO2)c1F` [compound 204], the IC50 under setting [1] is greater than 0.5 µM and the concentration for half-maximal inhibition (IC50) under setting [2] was greater than 10 µM.

For the compound `CC#Cc1cc(N)cc([C@@H]2Cc3nc(OC[C@@]45CCCN4C/C(=C\F)C5)nc(N4CCCn5nc(C(=O)N(C)C)c(Cl)c5C4)c3CO2)c1C(F)(F)F` [compound 427], under setting [3], the IC50 was less than 0.01 µM. On the same count and under the same terms, the value for `CCN(C)C(=O)c1nn2c(c1Cl)CN(c1nc(OC[C@@]34CCCN3C/C(=C\F)C4)nc3c1CO[C@H](c1c(F)c(N)cc(Cl)c1C(F)(F)F)C3)CCC2` [compound 432] was less than 0.01 µM. In the case of `CN1CCOc2c(nn3c2CN(c2nc(OC[C@@]45CCCN4C[C@H](F)C5)nc4c2CO[C@H](c2c(C(F)(F)F)ccc(N)c2F)C4)CCC3)C1=O` [212a, 11-((S)-7-(3-amino-2-fluoro-6-(trifluoromethyl)phenyl)-2-(((2R,7aS)-2-fluorotetrahydro-1H-pyrrolizin-7a(5H)-yl)methoxy)-7,8-dihydro-5H-pyrano[4,3-d]pyrimidin-4-yl)-4-methyl-3,4,9,10,11,12-hexahydro-8H-[1,4]diazepino[1′,2′:1,5]pyrazolo[3,4-f][1,4]oxazepin-5(2H)-one], the IC50 is greater than 0.5 µM under setting [1] and 0.81 µM under setting [2]. `Cc1c(C(=O)N(C)C)nn2c1CN(c1nc(OC[C@@]34CCCN3CC(=C(F)F)C4)nc3c1CO[C@H](c1cc(N)cc(F)c1C(F)(F)F)C3)CCC2` [compound 407]: the IC50 under setting [1] is 0.01 to 0.03 µM. `CN(C)C(=O)c1nn2c(c1Cl)CN(c1nc(OC[C@@]34CCCN3C[C@H](F)C4)nc3c1COC(c1cc(N)ccc1C(F)(F)F)C3)CCC2` (stereo in doubt) [230a, 5-((S)-7-(5-amino-2-(trifluoromethyl)phenyl)-2-(((2R,7aS)-2-fluorotetrahydro-1H-pyrrolizin-7a(5H)-yl)methoxy)-7,8-dihydro-5H-pyrano[4,3-d]pyrimidin-4-yl)-3-chloro-N,N-dimethyl-5,6,7,8-tetrahydro-4H-pyrazolo[1,5-a][1,4]diazepine-2-carboxamide]: the IC50 is, setting by setting: under setting [1], greater than 0.5 µM; under setting [2], greater than 10 µM. `CN(C)C(=O)c1nn2c(c1Cl)CN(c1nc(OC[C@@]34CCCN3C/C(=C\F)C4)nc3c1CO[C@H](c1cc(N)cc(Cl)c1C1CC1)C3)CCC2` [compound 439]: the IC50 under setting [3] was less than 0.01 µM. Still for that read-out and setting: the value for `Cc1c(C(=O)N2CCCC2)nn2c1CN(c1nc(OC[C@@]34CCCN3C/C(=C\F)C4)nc3c1CO[C@H](c1cc(N)cc(Cl)c1C(F)(F)F)C3)CCC2` [compound 421] was less than 0.01 µM.

Take `CN(C)C(=O)c1nn2c(c1Cl)CN(c1nc(OC[C@@]34CCCN3C/C(=C\F)C4)nc3c1CO[C@@H](c1c(F)c(N)cc(Cl)c1C(F)(F)F)C3)CCC2` [247b, 5-((R)-7-(3-amino-5-chloro-2-fluoro-6-(trifluoromethyl)phenyl)-2-(((S,Z)-2-(fluoromethylene)tetrahydro-1H-pyrrolizin-7a(5H)-yl)methoxy)-7,8-dihydro-5H-pyrano[4,3-d]pyrimidin-4-yl)-3-chloro-N,N-dimethyl-5,6,7,8-tetrahydro-4H-pyrazolo[1,5-a][1,4]diazepine-2-carboxamide]: the concentration for half-maximal inhibition (IC50) was greater than 0.5 µM under setting [1] and 0.615 µM under setting [2]. As to `CCN(CC)C(=O)c1nn2c(c1Cl)CN(c1nc(OC[C@@]34CCCN3C/C(=C\F)C4)nc3c1CO[C@H](c1c(F)c(N)cc(Cl)c1C(F)(F)F)C3)CCC2` [compound 434], the concentration for half-maximal inhibition (IC50) under setting [3] was less than 0.01 µM. With `CN(C)C(=O)c1nn2c(c1Cl)CN(c1nc(OC[C@@]34CCCN3C[C@H](F)C4)nc3c1COC(c1cc(N)ccc1C(F)(F)F)C3)CCC2` (stereo partly drawn) [compound 230, 5-(7-(5-amino-2-(trifluoromethyl)phenyl)-2-(((2R,7aS)-2-fluorotetrahydro-1H-pyrrolizin-7a(5H)-yl)methoxy)-7,8-dihydro-5H-pyrano[4,3-d]pyrimidin-4-yl)-3-chloro-N,N-dimethyl-5,6,7,8-tetrahydro-4H-pyrazolo[1,5-a][1,4]diazepine-2-carboxamide], the IC50 was 0.031 to 0.1 µM under setting [1] and 0.037 µM under setting [2]. `Cc1c(C(=O)N(C)C)nn2c1CN(c1nc(OC[C@@]34CCCN3C[C@H](F)C4)nc3c1CO[C@H](c1c(F)c(N)cc(Cl)c1C(F)(F)F)C3)CCC2` [compound 441]: the IC50 under setting [3] is less than 0.01 µM.
